{"source": "paper PMC4216111", "about": "“The Bile Acid-Sensitive Ion Channel (BASIC) Is Activated by Alterations of Its Membrane Environment” (PLoS ONE, 2014)", "key": {"rat BASIC [1]": {"target": "T1, rat BASIC (Rattus norvegicus, UniProt Q9R0W5)", "T1 sequence (Q9R0W5 1-495)": "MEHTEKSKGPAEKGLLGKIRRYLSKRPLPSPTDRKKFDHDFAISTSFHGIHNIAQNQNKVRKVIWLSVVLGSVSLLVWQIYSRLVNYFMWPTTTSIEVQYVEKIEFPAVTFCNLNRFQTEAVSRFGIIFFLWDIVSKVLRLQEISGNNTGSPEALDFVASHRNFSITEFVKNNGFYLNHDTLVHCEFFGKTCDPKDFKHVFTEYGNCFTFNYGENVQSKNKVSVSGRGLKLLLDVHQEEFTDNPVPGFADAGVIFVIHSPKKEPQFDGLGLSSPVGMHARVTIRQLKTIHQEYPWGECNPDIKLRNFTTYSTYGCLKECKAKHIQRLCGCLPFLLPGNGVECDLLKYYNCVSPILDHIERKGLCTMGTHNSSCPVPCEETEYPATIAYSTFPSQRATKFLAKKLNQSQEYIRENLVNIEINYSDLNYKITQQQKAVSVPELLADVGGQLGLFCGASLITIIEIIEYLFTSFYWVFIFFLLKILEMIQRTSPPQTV", "assay": "Two-electrode voltage clamp, Xenopus laevis oocytes expressing rat BASIC", "settings": "for IC50: read-out: IC50 of BASIC inhibition"}, "rat ASIC1a": {"system": "rat ASIC1a", "assay": "Two-electrode voltage clamp, oocytes expressing rat ASIC1a", "settings": "400 µM SDS, 500 µM NL, 100 µM Triton-X 100, 2 mM UDCA"}, "non-injected oocytes": {"system": "non-injected oocytes", "assay": "Two-electrode voltage clamp, non-injected control oocytes"}, "mouse BASIC [2]": {"system": "mouse BASIC", "assay": "Two-electrode voltage clamp, oocytes expressing mouse BASIC"}, "[3]": {"system": "Hydra Na^+ Channel (HyNaC) 2/3/5", "assay": "Two-electrode voltage clamp, oocytes expressing HyNaC2/3/5", "format": "cell-based", "settings": "400 µM SDS, 500 µM NL, 100 µM Triton-X 100, 5 µM RFamide I"}, "mouse BASIC [4]": {"system": "T2, mouse BASIC", "T2 construct": "expressed in transfected cells; host or cells: Xenopus laevis oocytes injected with cRNA", "design": "method as in PMID 21828194", "settings": "cited from earlier work"}, "human BASIC": {"system": "human BASIC", "design": "method as in PMID 21828194", "settings": "cited from earlier work"}, "rat BASIC [5]": {"target": "T1, rat BASIC", "design": "expressed in transfected cells; host or cells: Xenopus laevis oocytes injected with cRNA", "settings": "cited from earlier work"}, "[6]": {"assay": "Solubility in bath solution", "format": "physicochemical", "settings": "read-out: solubility limit"}, "[7]": {"system": "rASIC1a-rBASIC-TM1, -TM2 or -TM", "assay": "Two-electrode voltage clamp, chimeras rASIC1a-rBASIC-TM1, -TM2 or -TM", "format": "cell-based, rat", "settings": "2 mM UDCA", "from_the_text": "(§1) Clones for rat BASIC (accession No. NM_022227), mouse BASIC (accession No. NM_021370), rat ASIC1a (accession No. NM_024154) and HyNaC 2, 3 and 5 (accession No. AM393878, AM393880 and FN257513) were described previously, [15], [16]. Chimeras between BASIC and ASIC1a were generated by overlap PCR and PCR fragments were cloned into the expression vector pRSSP6009 [15] using the In-Fusion cloning kit (Invitrogen, Germany). Sequences were confirmed by sequencing. Plasmid DNAs were linearized using the restriction endonucleases MluI or NaeI. cRNA was synthesized from linearized plasmids using the SP6 mMessage mMachine kit (Ambion, USA).\n(§2) Chemicals were purchased from Sigma or Merck."}, "rBASIC-rASIC1a-loop": {"system": "rBASIC-rASIC1a-loop", "assay": "Two-electrode voltage clamp, chimera rBASIC-rASIC1a-loop", "format": "cell-based, rat", "settings": "2 mM UDCA", "from_the_text": "as §1, §2"}, "rASIC1a-rBASIC-loop": {"system": "rASIC1a-rBASIC-loop", "assay": "Two-electrode voltage clamp, chimera rASIC1a-rBASIC-loop", "format": "cell-based, rat", "settings": "2 mM UDCA", "from_the_text": "as §1, §2"}, "[8]": {"system": "rASIC1a rBASIC loop 1–2, rASIC1a rBASIC loop 2–3", "assay": "Two-electrode voltage clamp, chimeras rASIC1a rBASIC loop 1–2 and loop 2–3", "format": "cell-based, rat", "settings": "2 mM UDCA", "from_the_text": "as §1, §2"}, "[9]": {"system": "rASIC1a-rBASIC-loop 1, - 2 and -3", "assay": "Two-electrode voltage clamp, chimeras rASIC1a-rBASIC-loop 1, -2 and -3", "format": "cell-based, rat", "settings": "2 mM UDCA", "from_the_text": "as §1, §2"}, "[10]": {"settings": "400 µM SDS, 500 µM N-lauroylsarcosine, 100 µM Triton-X 100, n = 7"}, "[11]": {"settings": "2 mM UDCA, 500 µM CPZ, 10 mM TNP, 100 µM Triton-X 100, 500 µM NL, 400 µM SDS, n = 8"}, "[12]": {"settings": "400 µM SDS, 500 µM NL, 100 µM Triton-X 100, n = 8"}}, "note": "Like-named read-outs stand apart in the source and are kept apart here."}
{"compound": "CC(C)CCC[C@@H](C)[C@H]1CC[C@H]2[C@@H]3CC=C4C[C@@H](O)CC[C@]4(C)[C@H]3CC[C@]12C", "note": "[cholesterol]", "values": [{"measurement": "effect of cholesterol application on rBASIC dependent current", "setting": "rat BASIC [1]; 2 mM MβCD-balanced water-soluble cholesterol, 10 sec", "result": "did not affect the rBASIC dependent current"}]}
{"compound": "CCCCCCCCCCCC(=O)N(C)CC(=O)O", "note": "[NL, N-lauroylsarcosine]", "values": [{"measurement": "activation of ASIC1a", "setting": "rat ASIC1a", "result": "not activated"}, {"measurement": "current in un-injected oocytes", "setting": "non-injected oocytes; [10]", "result": "35±0.8", "unit": "nA"}, {"measurement": "activity of mouse BASIC, normalized to the amiloride-sensitive current", "setting": "mouse BASIC [2]; [11]", "result": 1.5, "unit": "fold"}, {"measurement": "increase of the low-activity (DIMI-sensitive) BASIC currents", "setting": "rat BASIC [1]; [12]", "result": 3, "unit": "fold"}, {"measurement": "effect on currents when applied in the presence of diminazene", "setting": "rat BASIC [1]; co-applied with diminazene", "result": "did not increase currents"}, {"measurement": "activation of HyNaC 2/3/5", "setting": "[3]", "result": "not activated"}]}
{"compound": "CCCCCCCCCCCCOS(=O)(=O)[O-].[Na+]", "note": "[SDS]", "values": [{"measurement": "activation of ASIC1a", "setting": "rat ASIC1a", "result": "not activated"}, {"measurement": "current in un-injected oocytes", "setting": "non-injected oocytes; [10]", "result": "34±0.6", "unit": "nA"}, {"measurement": "activity of mouse BASIC, normalized to the amiloride-sensitive current", "setting": "mouse BASIC [2]; [11]", "result": 1.5, "unit": "fold"}, {"measurement": "increase of the low-activity (DIMI-sensitive) BASIC currents", "setting": "rat BASIC [1]; [12]", "result": 2, "unit": "fold"}, {"measurement": "effect on currents when applied in the presence of diminazene", "setting": "rat BASIC [1]; co-applied with diminazene", "result": "did not increase currents"}, {"measurement": "activation of HyNaC 2/3/5", "setting": "[3]", "result": "not activated"}]}
{"compound": "Triton-X 100", "values": [{"measurement": "activation of ASIC1a", "setting": "rat ASIC1a", "result": "not activated"}, {"measurement": "current in un-injected oocytes", "setting": "non-injected oocytes", "result": "35±0.8", "unit": "nA"}, {"measurement": "activity of mouse BASIC, normalized to the amiloride-sensitive current", "setting": "mouse BASIC [2]", "result": 1.2, "unit": "fold"}, {"measurement": "effect on currents when applied in the presence of diminazene", "setting": "rat BASIC [1]", "result": "inhibited by diminazene"}, {"measurement": "increase of the low-activity (DIMI-sensitive) BASIC currents", "setting": "rat BASIC [1]", "result": 1.5, "unit": "fold"}, {"measurement": "activation of HyNaC 2/3/5", "setting": "[3]", "result": "not activated"}]}
{"compound": "O=C(O)c1ccccc1Nc1cccc(C(F)(F)F)c1", "note": "[FFA, flufenamic acid]", "values": [{"measurement": "effect on mouse BASIC", "setting": "mouse BASIC [4]", "result": "not affected"}, {"measurement": "activation of human BASIC", "setting": "human BASIC", "result": "activated"}, {"measurement": "activation of rat BASIC", "setting": "rat BASIC [5]", "result": "activated"}]}
{"compound": "N=C(N)c1ccc(/N=N/Nc2ccc(C(=N)N)cc2)cc1", "note": "[diminazene]", "values": [{"measurement": "effect of diminazene on BASIC currents", "setting": "rat BASIC [1]; 100 µM DIMI alone or together with SDS, NL or Triton-X 100", "result": "inhibited BASIC currents"}, {"measurement": "DIMI-sensitive current in the absence of stimulatory substances", "setting": "rat BASIC [1]; n = 8", "result": "0.25±0.03", "unit": "µA"}]}
{"compound": "CN(C)CCCN1c2ccccc2Sc2ccc(Cl)cc21", "note": "[CPZ, chlorpromazine]", "values": [{"measurement": "solubility", "setting": "[6]", "result": "≤ 500", "unit": "µM"}, {"measurement": "activity of mouse BASIC, normalized to the amiloride-sensitive current", "setting": "mouse BASIC [2]; [11]", "result": 0.95, "unit": "fold"}, {"measurement": "decrease of the response of BASIC to 2 mM UDCA", "setting": "rat BASIC [1]; 0.5 mM CPZ co-applied with 2 mM UDCA", "result": 2.0, "unit": "fold"}]}
{"compound": "[Gd+3]", "note": "[Gd^3+, gadolinium]", "values": [{"measurement": "response of non-injected control oocytes", "setting": "non-injected oocytes", "result": "did not respond"}, {"measurement": "effect on UDCA-dependent activation of BASIC", "setting": "rat BASIC [1]; 100 µM Gd^3+ co-applied with 2 mM UDCA", "result": "completely abolished"}, {"measurement": "IC50", "setting": "rat BASIC [1]; in the absence of UDCA (resting state), n = 8", "result": "102 ± 34", "unit": "µM"}, {"measurement": "IC50", "setting": "rat BASIC [1]; in the presence of 2 mM UDCA, n = 8", "result": "19 ± 7", "unit": "µM"}]}
{"compound": "C[C@H](CCC(=O)NCCS(=O)(=O)O)[C@H]1CC[C@H]2[C@@H]3[C@@H](O)C[C@@H]4C[C@H](O)CC[C@]4(C)[C@H]3CC[C@]12C", "note": "[UDCA, tauroursodeoxycholic acid]", "values": [{"measurement": "activation of ASIC1a", "setting": "rat ASIC1a", "result": "not activate ASIC1a"}, {"measurement": "activation by UDCA of chimeras rASIC1a-rBASIC-TM1, -TM2, -TM", "setting": "[7]", "result": "activated by UDCA"}, {"measurement": "response to UDCA of chimera rBASIC-rASIC1a-loop compared to removal of divalent cations", "setting": "rBASIC-rASIC1a-loop", "result": "extremely weak"}, {"measurement": "UDCA sensitivity of chimera rASIC1a-rBASIC-loop", "setting": "rASIC1a-rBASIC-loop", "result": "weakly sensitive to UDCA"}, {"measurement": "activity of mouse BASIC, normalized to the amiloride-sensitive current", "setting": "mouse BASIC [2]; [11]", "result": 1.3, "unit": "fold"}, {"measurement": "EC50", "setting": "rat BASIC [1]", "result": "2700 ± 60", "unit": "µM"}, {"measurement": "activation of BASIC", "setting": "rat BASIC [1]; 2 mM UDCA", "result": "strongly activated BASIC"}, {"measurement": "maximum current at 5 mM UDCA", "setting": "rat BASIC [1]; 5 mM UDCA, n = 10", "result": "23.8±2.4", "unit": "µA"}, {"measurement": "activation by UDCA of chimeras loop 1–2 and loop 2–3", "setting": "[8]", "result": "weakly activated by UDCA"}, {"measurement": "response to UDCA of chimeras rASIC1a-rBASIC-loop 1, -2 and -3", "setting": "[9]", "result": "responded weakly to UDCA"}]}
{"compound": "MβCD", "values": [{"measurement": "effect of cholesterol removal on rBASIC activity", "setting": "rat BASIC [1]; 20 mM MβCD, approximately 2 h, control, −Ca^2+ and 2 mM UDCA", "result": "does not influence rBASIC activity"}]}
